Measured values from PubChem BioAssay AID2060912 (Molecular Pharmacology Branch, DTP, NCI, 2025).
pIC50: −log10 of the molar value.

Test system: HUVEC/MSC spheroids viability
Assay: Human HUVEC/MSC cell line growth inhibition [KRAS2];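 as to viability, T/C: percent of DMSO vehicle control luminescence so 100% = untreated viability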
Conditions: for pIC50: curve of first compound; for viability, T/C: stronger effect = lower value; active = viability on the fitted dose curve at most 10% of control; inactive = the rest
How it was run: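 Spheroids of pooled-donor HUVEC and hMSC (passage ≤5) without tumour cells were treated with KRAS-pathway inhibitors alone and combined with targeted agents. Top concentration was at or near clinical Cmax, or 10 microM when Cmax was unknown, descending in half-log steps.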

CCNC(=O)CC1N=C(c2ccc(Cl)cc2)c2cc(OC)ccc2-n2c(C)nnc21 (centres undefined) + CNCc1ccccc1-c1csc(C(C)Nc2nc(C)nc3cc(OC)c(OC)cc23)c1
< 5.00: pIC50 (second compound 0.0316 µM) | pIC50 (second compound 0.1 µM) | pIC50 (second compound 0.316 µM) | pIC50 (second compound 1 µM) | pIC50 (second compound 3.16 µM)
> 7.50: pIC50 (second compound 10 µM)
inactive: viability, T/C (second compound 0.0316 µM, first compound 0.0316 µM) 89.8% | viability, T/C (second compound 0.0316 µM, first compound 0.1 µM) 96.4% | viability, T/C (second compound 0.0316 µM, first compound 0.316 µM) 88% | viability, T/C (second compound 0.0316 µM, first compound 1 µM) 106% | viability, T/C (second compound 0.0316 µM, first compound 3.16 µM) 114% | viability, T/C (second compound 0.0316 µM, first compound 10 µM) 115% | viability, T/C (second compound 0.1 µM, first compound 0.0316 µM) 96.8% | viability, T/C (second compound 0.1 µM, first compound 0.1 µM) 91.3% | viability, T/C (second compound 0.1 µM, first compound 0.316 µM) 109% | viability, T/C (second compound 0.1 µM, first compound 1 µM) 92.6% | viability, T/C (second compound 0.1 µM, first compound 3.16 µM) 120% | viability, T/C (second compound 0.1 µM, first compound 10 µM) 122% | viability, T/C (second compound 0.316 µM, first compound 0.0316 µM) 75.2% | viability, T/C (second compound 0.316 µM, first compound 0.1 µM) 86.6% | viability, T/C (second compound 0.316 µM, first compound 0.316 µM) 91.3% | viability, T/C (second compound 0.316 µM, first compound 1 µM) 109% | viability, T/C (second compound 0.316 µM, first compound 3.16 µM) 94.1% | viability, T/C (second compound 0.316 µM, first compound 10 µM) 93.7% | viability, T/C (second compound 1 µM, first compound 0.0316 µM) 69.5% | viability, T/C (second compound 1 µM, first compound 0.1 µM) 105% | viability, T/C (second compound 1 µM, first compound 0.316 µM) 98.5% | viability, T/C (second compound 1 µM, first compound 1 µM) 99.4% | viability, T/C (second compound 1 µM, first compound 3.16 µM) 127% | viability, T/C (second compound 1 µM, first compound 10 µM) 99.1% | viability, T/C (second compound 3.16 µM, first compound 0.0316 µM) 86.8% | viability, T/C (second compound 3.16 µM, first compound 0.1 µM) 93.6% | viability, T/C (second compound 3.16 µM, first compound 0.316 µM) 117% | viability, T/C (second compound 3.16 µM, first compound 1 µM) 97.3% | viability, T/C (second compound 3.16 µM, first compound 3.16 µM) 108% | viability, T/C (second compound 3.16 µM, first compound 10 µM) 114%
active: viability, T/C (second compound 10 µM, first compound 0.0316 µM) 0.39% | viability, T/C (second compound 10 µM, first compound 0.1 µM) 0.34% | viability, T/C (second compound 10 µM, first compound 0.316 µM) 0.4% | viability, T/C (second compound 10 µM, first compound 1 µM) 0.52% | viability, T/C (second compound 10 µM, first compound 3.16 µM) 0.39% | viability, T/C (second compound 10 µM, first compound 10 µM) 0.43%

Cn1nccc1Nc1nccc(-c2cc3c(s2)C(C)(C)N(CCN2CCOCC2)C3=O)n1 + C=CC(=O)N1CCN(c2nc(OCC3CCCN3C)nc3c2CCN(c2cccc4cccc(C)c24)C3)CC1CC#N
inactive: viability, T/C (second compound 0.00949 µM, first compound 0.0316 µM) 81.1% | viability, T/C (second compound 0.00949 µM, first compound 0.1 µM) 103% | viability, T/C (second compound 0.00949 µM, first compound 0.316 µM) 124% | viability, T/C (second compound 0.00949 µM, first compound 1 µM) 109% | viability, T/C (second compound 0.00949 µM, first compound 3.16 µM) 45.1% | viability, T/C (second compound 0.03 µM, first compound 0.0316 µM) 85.3% | viability, T/C (second compound 0.03 µM, first compound 0.1 µM) 103% | viability, T/C (second compound 0.03 µM, first compound 0.316 µM) 111% | viability, T/C (second compound 0.03 µM, first compound 1 µM) 96.2% | viability, T/C (second compound 0.03 µM, first compound 3.16 µM) 48.6% | viability, T/C (second compound 0.0949 µM, first compound 0.0316 µM) 93.1% | viability, T/C (second compound 0.0949 µM, first compound 0.1 µM) 119% | viability, T/C (second compound 0.0949 µM, first compound 0.316 µM) 106% | viability, T/C (second compound 0.0949 µM, first compound 1 µM) 86.1% | viability, T/C (second compound 0.0949 µM, first compound 3.16 µM) 47.6% | viability, T/C (second compound 0.3 µM, first compound 0.0316 µM) 77.7% | viability, T/C (second compound 0.3 µM, first compound 0.1 µM) 85.8% | viability, T/C (second compound 0.3 µM, first compound 0.316 µM) 99.6% | viability, T/C (second compound 0.3 µM, first compound 1 µM) 91% | viability, T/C (second compound 0.3 µM, first compound 3.16 µM) 48.5% | viability, T/C (second compound 0.949 µM, first compound 0.0316 µM) 76.7% | viability, T/C (second compound 0.949 µM, first compound 0.1 µM) 91.2% | viability, T/C (second compound 0.949 µM, first compound 0.316 µM) 93.9% | viability, T/C (second compound 0.949 µM, first compound 1 µM) 92.1% | viability, T/C (second compound 0.949 µM, first compound 3.16 µM) 38.4% | viability, T/C (second compound 3 µM, first compound 0.0316 µM) 90.6% | viability, T/C (second compound 3 µM, first compound 0.1 µM) 107% | viability, T/C (second compound 3 µM, first compound 0.316 µM) 93.8% | viability, T/C (second compound 3 µM, first compound 1 µM) 55.7%
5.52: pIC50 (second compound 0.03 µM) | pIC50 (second compound 0.3 µM)
5.62: pIC50 (second compound 0.949 µM)
active: viability, T/C (second compound 0.00949 µM, first compound 10 µM) 6.48% | viability, T/C (second compound 0.03 µM, first compound 10 µM) 5.51% | viability, T/C (second compound 0.0949 µM, first compound 10 µM) 9.65% | viability, T/C (second compound 0.3 µM, first compound 10 µM) 3.83% | viability, T/C (second compound 0.949 µM, first compound 10 µM) 1.39% | viability, T/C (second compound 3 µM, first compound 3.16 µM) 2.04% | viability, T/C (second compound 3 µM, first compound 10 µM) 0.32%
5.95: pIC50 (second compound 3 µM)
5.54: pIC50 (second compound 0.00949 µM) | pIC50 (second compound 0.0949 µM)
